Measured values published in ChEMBL document CHEMBL6182889, “Discovery of the first-in-class DOT1L PROTAC degrader” (Eur J Med Chem, 2025).
The source made the active and inactive calls. No cut-off for these calls is given here.

Experiments:
[1] = molecular target: T1, von Hippel-Lindau disease tumor suppressor/Histone-lysine N-methyltransferase, H3 lysine-79 specific (Homo sapiens, UniProt Q8TEK3+P40337); test: PROTAC activity at VHL/DOT1L in mixed-lineage leukemia rearranged (MLL-r) human THP-1 cells assessed as induction of DOTIL degradation by measuring fold change in DOT1L protein level at 3 uM incubated for 8 hrs by western blot analysis relative to control; type: cell-based
[2] = molecular target: T1, von Hippel-Lindau disease tumor suppressor/Histone-lysine N-methyltransferase, H3 lysine-79 specific; test: PROTAC activity at VHL/DOT1L in mixed-lineage leukemia rearranged (MLL-r) human THP-1 cells assessed as induction of DOTIL degradation by measuring fold change in H3K79Me2 level at 3 uM incubated for 2 hrs by western blot analysis relative to control; type: cell-based
[3] = molecular target: T1, von Hippel-Lindau disease tumor suppressor/Histone-lysine N-methyltransferase, H3 lysine-79 specific; test: PROTAC activity at VHL/DOT1L in mixed-lineage leukemia rearranged (MLL-r) human THP-1 cells assessed as induction of DOTIL degradation by measuring fold change in H3K79Me2 level at 3 uM incubated for 4 hrs by western blot analysis relative to control; type: cell-based
[4] = molecular target: T1, von Hippel-Lindau disease tumor suppressor/Histone-lysine N-methyltransferase, H3 lysine-79 specific; test: PROTAC activity at VHL/DOT1L in mixed-lineage leukemia rearranged (MLL-r) human THP-1 cells assessed as induction of DOTIL degradation by measuring fold change in H3K79Me2 level at 3 uM incubated for 8 hrs by western blot analysis relative to control; type: cell-based
[5] = molecular target: T1, von Hippel-Lindau disease tumor suppressor/Histone-lysine N-methyltransferase, H3 lysine-79 specific; test: PROTAC activity at VHL/DOT1L in mixed-lineage leukemia rearranged (MLL-r) human MV4-11 cells assessed as induction of DOTIL degradation by measuring fold change in DOT1L protein level at 3 uM incubated for 48 hrs by western blot analysis relative to control; type: cell-based
[6] = molecular target: T1, von Hippel-Lindau disease tumor suppressor/Histone-lysine N-methyltransferase, H3 lysine-79 specific; test: PROTAC activity at VHL/DOT1L in mixed-lineage leukemia rearranged (MLL-r) human MOLM-13 cells assessed as induction of DOT1L degradation at 0.3 to 3 uM by western blot analysis; type: cell-based; conditions: dose 0.3-3 µM
[7] = molecular target: DNA (cytosine-5)-methyltransferase 1 (Homo sapiens) (UniProt P26358); test: Inhibition of human DNMT1 using poly(dI-dC) and SAM as substrate at 10 uM by radiometric Hotspot assay
[8] = molecular target: Histone-lysine N-methyltransferase EZH2 (Homo sapiens) (UniProt Q15910); test: Inhibition of human EZH2 using core histone and SAM as substrate at 10 uM by radiometric Hotspot assay
[9] = molecular target: T2, Histone-lysine N-methyltransferase NSD2 (Homo sapiens) (UniProt O96028); test: Inhibition of human NSD2 using nucleosomes and SAM as substrate at 10 uM by radiometric Hotspot assay
T2 sequence (whole entry): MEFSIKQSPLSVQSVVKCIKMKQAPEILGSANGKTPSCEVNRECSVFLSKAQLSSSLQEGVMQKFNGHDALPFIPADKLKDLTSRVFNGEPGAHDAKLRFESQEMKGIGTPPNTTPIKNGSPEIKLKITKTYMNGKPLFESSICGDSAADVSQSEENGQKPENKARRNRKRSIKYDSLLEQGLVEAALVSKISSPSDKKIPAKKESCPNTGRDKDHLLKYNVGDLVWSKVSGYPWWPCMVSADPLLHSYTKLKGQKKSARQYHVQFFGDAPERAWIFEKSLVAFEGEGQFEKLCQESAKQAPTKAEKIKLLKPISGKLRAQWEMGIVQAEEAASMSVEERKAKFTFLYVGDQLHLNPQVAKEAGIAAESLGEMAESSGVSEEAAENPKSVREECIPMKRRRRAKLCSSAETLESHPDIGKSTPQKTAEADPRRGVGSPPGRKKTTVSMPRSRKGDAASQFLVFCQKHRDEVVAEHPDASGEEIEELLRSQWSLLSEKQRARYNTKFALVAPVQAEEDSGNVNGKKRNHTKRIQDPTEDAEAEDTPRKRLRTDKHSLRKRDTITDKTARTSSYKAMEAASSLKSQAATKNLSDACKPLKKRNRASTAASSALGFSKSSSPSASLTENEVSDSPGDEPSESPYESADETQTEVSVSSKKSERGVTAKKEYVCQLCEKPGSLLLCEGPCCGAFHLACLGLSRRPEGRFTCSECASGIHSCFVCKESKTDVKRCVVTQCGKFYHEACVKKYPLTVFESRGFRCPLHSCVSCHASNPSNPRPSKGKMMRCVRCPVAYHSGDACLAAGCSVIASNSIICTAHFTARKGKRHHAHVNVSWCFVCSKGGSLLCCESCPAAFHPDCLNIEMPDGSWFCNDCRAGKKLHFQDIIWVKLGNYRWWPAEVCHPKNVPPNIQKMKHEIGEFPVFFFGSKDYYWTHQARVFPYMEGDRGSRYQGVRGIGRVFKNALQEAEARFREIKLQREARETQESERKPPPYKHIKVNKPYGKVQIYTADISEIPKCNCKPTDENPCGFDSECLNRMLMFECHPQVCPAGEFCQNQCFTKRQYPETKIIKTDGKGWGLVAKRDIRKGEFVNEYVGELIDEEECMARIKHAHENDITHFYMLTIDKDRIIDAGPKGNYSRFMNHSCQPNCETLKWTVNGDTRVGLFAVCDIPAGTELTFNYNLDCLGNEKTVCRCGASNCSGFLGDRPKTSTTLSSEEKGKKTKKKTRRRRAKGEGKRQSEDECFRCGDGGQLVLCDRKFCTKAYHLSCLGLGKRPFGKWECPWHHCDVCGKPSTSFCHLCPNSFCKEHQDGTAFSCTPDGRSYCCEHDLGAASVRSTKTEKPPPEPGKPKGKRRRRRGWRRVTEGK

[10] = molecular target: Protein arginine N-methyltransferase 1 (Homo sapiens) (UniProt Q99873); test: Inhibition of human PRMT1 using histone H4 and SAM as substrate at 10 uM by radiometric Hotspot assay
[11] = molecular target: T3, Histone-arginine methyltransferase CARM1 (Homo sapiens) (UniProt Q86X55); test: Inhibition of human PRMT4 using histone H3 and SAM as substrate at 10 uM by radiometric Hotspot assay
T3 sequence (whole entry): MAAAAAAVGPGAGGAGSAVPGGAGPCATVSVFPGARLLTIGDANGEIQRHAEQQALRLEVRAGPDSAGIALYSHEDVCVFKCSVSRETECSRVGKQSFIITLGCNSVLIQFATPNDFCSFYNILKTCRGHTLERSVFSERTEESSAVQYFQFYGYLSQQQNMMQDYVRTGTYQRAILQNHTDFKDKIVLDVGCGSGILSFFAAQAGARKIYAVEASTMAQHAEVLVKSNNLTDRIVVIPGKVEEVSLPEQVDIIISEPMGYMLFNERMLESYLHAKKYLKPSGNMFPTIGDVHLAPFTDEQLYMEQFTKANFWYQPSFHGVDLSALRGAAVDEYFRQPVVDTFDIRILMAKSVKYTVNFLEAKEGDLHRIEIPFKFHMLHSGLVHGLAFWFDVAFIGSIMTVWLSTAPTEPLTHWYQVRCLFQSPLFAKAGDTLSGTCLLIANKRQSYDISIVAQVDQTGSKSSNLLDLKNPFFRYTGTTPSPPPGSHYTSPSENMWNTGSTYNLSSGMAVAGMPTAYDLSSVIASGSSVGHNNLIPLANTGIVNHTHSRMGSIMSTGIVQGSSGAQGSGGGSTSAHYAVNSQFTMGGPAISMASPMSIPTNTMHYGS

T1 sequence (P40337 whole entry, looked up): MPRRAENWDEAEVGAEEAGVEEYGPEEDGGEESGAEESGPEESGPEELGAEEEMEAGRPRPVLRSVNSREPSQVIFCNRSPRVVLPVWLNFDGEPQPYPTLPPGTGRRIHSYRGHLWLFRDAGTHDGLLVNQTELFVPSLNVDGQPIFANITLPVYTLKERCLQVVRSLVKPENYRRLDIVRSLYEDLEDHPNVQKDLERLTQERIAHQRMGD
T1 sequence (Q8TEK3 whole entry, looked up): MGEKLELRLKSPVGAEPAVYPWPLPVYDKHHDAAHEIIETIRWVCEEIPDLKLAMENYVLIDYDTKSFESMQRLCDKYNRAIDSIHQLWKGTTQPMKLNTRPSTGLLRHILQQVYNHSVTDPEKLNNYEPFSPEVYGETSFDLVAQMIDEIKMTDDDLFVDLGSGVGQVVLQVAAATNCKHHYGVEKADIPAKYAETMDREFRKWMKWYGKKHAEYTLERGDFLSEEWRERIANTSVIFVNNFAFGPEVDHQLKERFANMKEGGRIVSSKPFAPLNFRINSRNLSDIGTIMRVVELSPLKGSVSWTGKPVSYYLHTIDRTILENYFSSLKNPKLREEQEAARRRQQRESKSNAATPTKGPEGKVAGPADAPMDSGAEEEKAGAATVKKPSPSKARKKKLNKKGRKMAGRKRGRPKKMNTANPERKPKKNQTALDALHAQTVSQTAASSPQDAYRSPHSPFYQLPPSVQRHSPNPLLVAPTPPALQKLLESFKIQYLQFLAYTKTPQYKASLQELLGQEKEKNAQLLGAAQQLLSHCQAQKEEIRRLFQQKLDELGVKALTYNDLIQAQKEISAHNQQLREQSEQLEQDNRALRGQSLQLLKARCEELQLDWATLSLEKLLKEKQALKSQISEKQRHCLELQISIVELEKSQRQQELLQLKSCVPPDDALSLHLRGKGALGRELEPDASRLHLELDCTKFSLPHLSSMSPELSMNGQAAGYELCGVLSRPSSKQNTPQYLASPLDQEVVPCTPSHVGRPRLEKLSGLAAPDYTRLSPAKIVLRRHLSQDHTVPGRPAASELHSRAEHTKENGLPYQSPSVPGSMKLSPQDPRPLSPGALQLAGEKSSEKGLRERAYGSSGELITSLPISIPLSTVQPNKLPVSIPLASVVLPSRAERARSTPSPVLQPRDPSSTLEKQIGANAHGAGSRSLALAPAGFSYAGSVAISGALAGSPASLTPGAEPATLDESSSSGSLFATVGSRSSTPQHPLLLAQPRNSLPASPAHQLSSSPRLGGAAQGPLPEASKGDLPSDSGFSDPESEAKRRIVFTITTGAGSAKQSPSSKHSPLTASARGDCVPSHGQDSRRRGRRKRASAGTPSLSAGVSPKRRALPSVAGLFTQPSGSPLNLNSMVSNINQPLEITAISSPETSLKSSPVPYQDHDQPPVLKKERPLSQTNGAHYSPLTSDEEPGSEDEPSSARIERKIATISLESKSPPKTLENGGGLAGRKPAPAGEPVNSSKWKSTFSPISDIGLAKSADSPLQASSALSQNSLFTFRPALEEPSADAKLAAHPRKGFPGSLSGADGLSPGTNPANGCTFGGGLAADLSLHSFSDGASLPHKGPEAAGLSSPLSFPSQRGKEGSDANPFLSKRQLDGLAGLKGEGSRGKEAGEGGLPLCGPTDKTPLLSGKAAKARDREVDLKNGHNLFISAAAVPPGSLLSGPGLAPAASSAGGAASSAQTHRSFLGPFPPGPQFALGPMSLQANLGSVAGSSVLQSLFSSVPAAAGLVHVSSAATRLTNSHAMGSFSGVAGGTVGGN
Sequence of Protein arginine N-methyltransferase 1 (Homo sapiens) (Q99873 whole entry, looked up): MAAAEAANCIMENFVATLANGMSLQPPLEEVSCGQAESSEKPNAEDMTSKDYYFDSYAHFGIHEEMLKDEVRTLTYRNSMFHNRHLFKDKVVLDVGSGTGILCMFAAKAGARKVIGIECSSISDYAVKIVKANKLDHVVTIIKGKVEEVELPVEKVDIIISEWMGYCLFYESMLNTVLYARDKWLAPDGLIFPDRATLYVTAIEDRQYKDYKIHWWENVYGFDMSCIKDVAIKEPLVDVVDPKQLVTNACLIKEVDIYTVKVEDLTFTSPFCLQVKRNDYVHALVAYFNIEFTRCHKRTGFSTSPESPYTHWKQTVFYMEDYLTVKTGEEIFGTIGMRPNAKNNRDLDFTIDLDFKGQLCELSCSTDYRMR
Sequence of DNA (cytosine-5)-methyltransferase 1 (Homo sapiens) (P26358 whole entry): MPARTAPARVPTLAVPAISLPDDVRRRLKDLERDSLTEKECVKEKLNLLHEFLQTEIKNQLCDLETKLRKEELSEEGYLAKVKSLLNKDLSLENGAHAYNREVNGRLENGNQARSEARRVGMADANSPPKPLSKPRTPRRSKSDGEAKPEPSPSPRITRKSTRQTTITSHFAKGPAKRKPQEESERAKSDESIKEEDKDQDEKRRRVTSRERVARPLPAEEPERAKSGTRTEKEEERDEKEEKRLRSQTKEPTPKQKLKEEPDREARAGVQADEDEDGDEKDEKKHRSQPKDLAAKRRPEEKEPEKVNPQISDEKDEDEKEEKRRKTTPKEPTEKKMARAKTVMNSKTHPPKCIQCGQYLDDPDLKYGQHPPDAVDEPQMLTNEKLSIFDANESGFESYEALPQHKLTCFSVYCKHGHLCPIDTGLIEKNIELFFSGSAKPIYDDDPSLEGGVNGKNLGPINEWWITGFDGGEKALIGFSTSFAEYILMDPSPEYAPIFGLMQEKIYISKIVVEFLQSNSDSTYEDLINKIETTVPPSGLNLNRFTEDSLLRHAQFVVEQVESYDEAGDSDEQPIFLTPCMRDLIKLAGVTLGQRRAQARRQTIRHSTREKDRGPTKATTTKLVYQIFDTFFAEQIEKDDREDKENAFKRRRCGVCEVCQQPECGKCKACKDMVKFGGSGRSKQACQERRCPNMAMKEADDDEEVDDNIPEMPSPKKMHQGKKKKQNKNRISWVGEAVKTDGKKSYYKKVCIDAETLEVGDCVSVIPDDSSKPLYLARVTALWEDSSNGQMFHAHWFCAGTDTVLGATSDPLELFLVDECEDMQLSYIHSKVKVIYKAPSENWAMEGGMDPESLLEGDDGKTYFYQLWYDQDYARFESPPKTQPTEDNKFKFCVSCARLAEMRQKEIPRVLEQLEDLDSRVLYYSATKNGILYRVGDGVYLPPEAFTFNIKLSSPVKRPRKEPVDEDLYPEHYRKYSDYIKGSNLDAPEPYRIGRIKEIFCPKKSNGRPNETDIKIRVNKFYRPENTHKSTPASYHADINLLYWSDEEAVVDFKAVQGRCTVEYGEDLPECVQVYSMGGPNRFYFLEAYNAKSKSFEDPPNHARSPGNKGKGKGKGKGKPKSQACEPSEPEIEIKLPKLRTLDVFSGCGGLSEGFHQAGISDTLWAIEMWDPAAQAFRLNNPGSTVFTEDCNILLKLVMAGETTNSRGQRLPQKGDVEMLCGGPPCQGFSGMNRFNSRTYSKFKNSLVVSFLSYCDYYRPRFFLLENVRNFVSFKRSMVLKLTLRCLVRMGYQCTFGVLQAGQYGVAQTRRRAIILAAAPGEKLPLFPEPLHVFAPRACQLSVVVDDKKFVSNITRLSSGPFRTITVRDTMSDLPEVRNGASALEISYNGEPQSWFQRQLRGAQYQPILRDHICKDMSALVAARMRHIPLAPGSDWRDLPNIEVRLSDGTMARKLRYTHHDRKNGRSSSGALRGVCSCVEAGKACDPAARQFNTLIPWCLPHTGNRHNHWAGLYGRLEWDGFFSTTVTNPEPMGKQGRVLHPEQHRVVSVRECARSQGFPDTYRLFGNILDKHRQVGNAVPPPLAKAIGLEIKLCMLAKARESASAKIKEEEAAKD
Sequence of Histone-lysine N-methyltransferase EZH2 (Homo sapiens) (Q15910 whole entry, looked up): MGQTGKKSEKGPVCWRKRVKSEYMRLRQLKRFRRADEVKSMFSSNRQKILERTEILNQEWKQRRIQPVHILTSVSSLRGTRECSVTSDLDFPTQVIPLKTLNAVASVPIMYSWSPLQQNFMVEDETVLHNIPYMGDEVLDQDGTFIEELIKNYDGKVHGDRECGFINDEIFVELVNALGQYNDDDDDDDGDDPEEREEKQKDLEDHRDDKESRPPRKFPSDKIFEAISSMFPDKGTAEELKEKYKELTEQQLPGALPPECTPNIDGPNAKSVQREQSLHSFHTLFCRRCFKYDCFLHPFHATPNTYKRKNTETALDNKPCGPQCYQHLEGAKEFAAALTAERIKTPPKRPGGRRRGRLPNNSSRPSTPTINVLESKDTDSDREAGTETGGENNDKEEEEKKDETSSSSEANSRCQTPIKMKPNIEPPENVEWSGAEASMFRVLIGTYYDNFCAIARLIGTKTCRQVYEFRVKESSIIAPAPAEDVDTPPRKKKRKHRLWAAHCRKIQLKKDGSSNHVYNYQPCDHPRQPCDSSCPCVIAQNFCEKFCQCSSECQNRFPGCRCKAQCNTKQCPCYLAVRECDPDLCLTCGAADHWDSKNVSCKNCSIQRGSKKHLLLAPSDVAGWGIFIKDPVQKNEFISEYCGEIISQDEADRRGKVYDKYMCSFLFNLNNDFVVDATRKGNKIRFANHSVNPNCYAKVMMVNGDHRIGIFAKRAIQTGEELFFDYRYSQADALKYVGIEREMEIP

fold change (FC) [1]: 0.29 | fold change (FC) [2]: 0.97 | fold change (FC) [3]: 1.08 | fold change (FC) [4]: 1.13 | fold change (FC) [5]: 0.03 | Activity [6]: Active | inhibition [7]: inactive | inhibition [8]: inactive | inhibition [9]: inactive | inhibition [10]: inactive | inhibition [11]: inactive
Compound: Cc1ncsc1-c1ccc([C@H](CC(=O)NCCCCCCNC(=O)COc2nc(N)nc(Nc3cc(S(N)(=O)=O)ccc3N[C@@H](c3cccc4c3OC(F)(F)O4)c3ncccc3Cl)n2)NC(=O)[C@@H]2C[C@@H](O)CN2C(=O)[C@@H](NC(=O)C2(F)CC2)C(C)(C)C)cc1
